Results taken from ChEMBL document CHEMBL1212804, “Comparative study of the mutant prevention concentrations of moxifloxacin, levofloxacin, and gemifloxacin against pneumococci” (2010).
≈ marks a conversion by molar mass, not a printed value. Values belong to the compound of their own block, whether it stands above or below them.

What was measured:
Assay type in all cases: functional
Streptococcus pneumoniae [1] = assay: Antibacterial activity against Streptococcus pneumoniae 3321 assessed as mutant prevention concentration by standard agar dilution method
Streptococcus pneumoniae [2] = assay: Antibacterial activity against Streptococcus pneumoniae ATCC 49619 assessed as 90% mutant prevention concentration
Streptococcus pneumoniae [3] = assay: Antibacterial activity against Streptococcus pneumoniae ATCC 49619 assessed as 50% mutant prevention concentration
Streptococcus pneumoniae [4] = assay: Antibacterial activity against Streptococcus pneumoniae 1151 assessed as mutant prevention concentration by standard agar dilution method
Streptococcus pneumoniae [5] = assay: Antibacterial activity against Streptococcus pneumoniae 1065 assessed as mutant prevention concentration by standard agar dilution method
Streptococcus pneumoniae [6] = assay: Antibacterial activity against Streptococcus pneumoniae 1149 assessed as mutant prevention concentration by standard agar dilution method
Streptococcus pneumoniae [7] = assay: Antibacterial activity against Streptococcus pneumoniae 1135 assessed as mutant prevention concentration by standard agar dilution method
Streptococcus pneumoniae [8] = assay: Antibacterial activity against Streptococcus pneumoniae ATCC 49619
Streptococcus pneumoniae [9] = assay: Antibacterial activity against Streptococcus pneumoniae 1058 assessed as mutant prevention concentration by standard agar dilution method
Streptococcus pneumoniae [10] = assay: Antibacterial activity against Streptococcus pneumoniae 1072 assessed as mutant prevention concentration by standard agar dilution method
Streptococcus pneumoniae [11] = assay: Antibacterial activity against Streptococcus pneumoniae 1151 by standard agar dilution method
Streptococcus pneumoniae [12] = assay: Ratio of 50% mutant prevention concentration to MIC50 in Streptococcus pneumoniae ATCC 49619
Streptococcus pneumoniae [13] = assay: Antibacterial activity against Streptococcus pneumoniae 1072 by standard agar dilution method
Streptococcus pneumoniae [14] = assay: Antibacterial activity against Streptococcus pneumoniae 1065 by standard agar dilution method
Streptococcus pneumoniae [15] = assay: Antibacterial activity against Streptococcus pneumoniae 1135 by standard agar dilution method
Streptococcus pneumoniae [16] = assay: Antibacterial activity against Streptococcus pneumoniae 3321 by standard agar dilution method
Streptococcus pneumoniae [17] = assay: Antibacterial activity against Streptococcus pneumoniae 1058 by standard agar dilution method
Streptococcus pneumoniae [18] = assay: Antibacterial activity against Streptococcus pneumoniae 1149 by standard agar dilution method
Streptococcus pneumoniae [19] = assay: Ratio of 90% mutant prevention concentration to MIC90 in Streptococcus pneumoniae ATCC 49619
[20] = Ratio of AUC to MIC in Streptococcus pneumoniae ATCC 49619

Compound: C[C@H]1COc2c(N3CCN(C)CC3)c(F)cc3c(=O)c(C(=O)O)cn1c23.C[C@H]1COc2c(N3CCN(C)CC3)c(F)cc3c(=O)c(C(=O)O)cn1c23.O [LEVOFLOXACIN]
Activity (Streptococcus pneumoniae [1]): 32 µg/mL | Activity (Streptococcus pneumoniae [2]): 64 µg/mL | Activity (Streptococcus pneumoniae [3]): 4 µg/mL | Activity (Streptococcus pneumoniae [4]): 32 µg/mL | Activity (Streptococcus pneumoniae [5]): 32 µg/mL | Activity (Streptococcus pneumoniae [6]): >64 µg/mL | Activity (Streptococcus pneumoniae [7]): 128 µg/mL | MIC50 (Streptococcus pneumoniae [8]): 2 µg/mL | MIC90 (Streptococcus pneumoniae [8]): 32 µg/mL | Activity (Streptococcus pneumoniae [9]): 64 µg/mL | Activity (Streptococcus pneumoniae [10]): 256 µg/mL

Compound: COc1c(N2C[C@@H]3CCCN[C@@H]3C2)c(F)cc2c(=O)c(C(=O)O)cn(C3CC3)c12 [MOXIFLOXACIN]
MIC (Streptococcus pneumoniae [11]): 1 µg/mL (≈ 2.49 µM) | Activity (Streptococcus pneumoniae [1]): >8 µg/mL | Ratio (Streptococcus pneumoniae [12]): 2 | Activity (Streptococcus pneumoniae [2]): 16 µg/mL | Activity (Streptococcus pneumoniae [3]): 1 µg/mL | MIC (Streptococcus pneumoniae [13]): 8 µg/mL (≈ 19.9 µM) | Activity (Streptococcus pneumoniae [4]): >8 µg/mL | MIC (Streptococcus pneumoniae [14]): 0.5 µg/mL (≈ 1.25 µM) | Activity (Streptococcus pneumoniae [5]): >8 µg/mL | Activity (Streptococcus pneumoniae [6]): >8 µg/mL | Activity (Streptococcus pneumoniae [7]): 32 µg/mL | MIC (Streptococcus pneumoniae [15]): 2 µg/mL (≈ 4.98 µM) | MIC (Streptococcus pneumoniae [16]): 0.5 µg/mL (≈ 1.25 µM) | MIC (Streptococcus pneumoniae [17]): 0.5 µg/mL (≈ 1.25 µM) | MIC50 (Streptococcus pneumoniae [8]): 0.5 µg/mL (≈ 1.25 µM) | MIC90 (Streptococcus pneumoniae [8]): 4 µg/mL (≈ 9.96 µM) | Activity (Streptococcus pneumoniae [9]): >4 µg/mL | MIC (Streptococcus pneumoniae [18]): 0.5 µg/mL (≈ 1.25 µM) | Activity (Streptococcus pneumoniae [10]): 64 µg/mL | Ratio (Streptococcus pneumoniae [19]): 4

Compound: CO/N=C1\CN(c2nc3c(cc2F)c(=O)c(C(=O)O)cn3C2CC2)CC1CN (configuration not stated) [GEMIFLOXACIN]
MIC (Streptococcus pneumoniae [11]): 1 µg/mL (≈ 2.57 µM) | Activity (Streptococcus pneumoniae [1]): 2 µg/mL | Ratio (Streptococcus pneumoniae [12]): 4 | Activity (Streptococcus pneumoniae [2]): 4 µg/mL | Activity (Streptococcus pneumoniae [3]): 0.5 µg/mL | MIC (Streptococcus pneumoniae [13]): 1 µg/mL (≈ 2.57 µM) | Activity (Streptococcus pneumoniae [4]): 8 µg/mL | MIC (Streptococcus pneumoniae [14]): 0.125 µg/mL (≈ 0.321 µM) | Activity (Streptococcus pneumoniae [5]): 4 µg/mL | Activity (Streptococcus pneumoniae [6]): >8 µg/mL | Activity (Streptococcus pneumoniae [7]): 4 µg/mL | MIC (Streptococcus pneumoniae [15]): 0.5 µg/mL (≈ 1.28 µM) | MIC (Streptococcus pneumoniae [16]): 0.125 µg/mL (≈ 0.321 µM) | MIC (Streptococcus pneumoniae [17]): 0.125 µg/mL (≈ 0.321 µM) | MIC50 (Streptococcus pneumoniae [8]): 0.125 µg/mL (≈ 0.321 µM) | MIC90 (Streptococcus pneumoniae [8]): 1 µg/mL (≈ 2.57 µM) | Activity (Streptococcus pneumoniae [9]): 1 µg/mL | MIC (Streptococcus pneumoniae [18]): 0.5 µg/mL (≈ 1.28 µM) | Activity (Streptococcus pneumoniae [10]): 8 µg/mL | Ratio (Streptococcus pneumoniae [19]): 4

RatioAUC/MIC [20]: 30
Compound: O=C(O)c1cn(C2CC2)c2cc(N3CCNCC3)c(F)cc2c1=O
